# pIC50: −log10 of the molar value.
# Experiments:
# Assay type in all cases: functional, organism-based
# Plasmodium falciparum [1] = assay: Antimalarial activity against drug-sensitive Plasmodium falciparum NF54 by SYBR green-based assay
# Plasmodium falciparum [2] = assay: Antimalarial activity against multidrug-resistant Plasmodium falciparum K1 by SYBR green-based assay
# Plasmodium falciparum [3] = assay: Antimalarial activity against multidrug-resistant Plasmodium falciparum W2 by SYBR green-based assay
SMILES,pIC50 (Plasmodium falciparum [1]),pIC50 (Plasmodium falciparum [2]),pIC50 (Plasmodium falciparum [3])
Cc1ccc2cccnc2c1Nc1ccnc2ccnn12,< 5.70,< 5.70,
Cc1cc(Nc2ccnc3ccnn23)c2ncccc2c1,7.20,7.42,
c1cnc2c(Oc3ccnc4ccnn34)cccc2c1,< 5.70,< 5.70,
COc1cc(C)c2c(Oc3cccc(C(F)(F)F)c3)c(OC)cc(NC(C)CCCN)c2n1 (stereo not given) [TAFENOQUINE],,,6.66
Cc1nc2cccc(Nc3cccc4cccnc34)c2o1,5.89,5.80,
Cc1ccc2cccc(Nc3ccnc4ccnn34)c2n1,5.77,5.92,
Cc1cc(Nc2cccc3cccnc23)n2ncnc2n1,6.06,6.12,
Cc1nccc(Nc2cccc3cccnc23)n1,< 6.30,< 6.30,
Cc1nn2c(Nc3cccc4cccnc34)c(C#N)cnc2c1C,7.59,7.57,
Cc1cc(Nc2cccc3cccnc23)n2nccc2n1,> 8.41,8.17,
c1cnc2c(Nc3ccnc4ccnn34)cccc2c1,8.28,8.11,
FC(F)(F)c1cc(Nc2ccnc3ccnn23)c2ncccc2c1,7.38,7.74,
c1cc(Nc2ccnc3ccnn23)c2c(c1)OCCO2,< 5.70,< 5.70,
N#Cc1cnc2cc(C3CC3)nn2c1Nc1cccc2cccnc12,5.80,5.70,
N#Cc1cnn2c(Nc3cccc4cccnc34)ccnc12,7.15,7.29,
COc1cc(NC(C)CCCN)c2ncccc2c1 (stereo not given) [PRIMAQUINE],,,5.83
COc1cc(Nc2ccnc3ccnn23)c2ncccc2c1,7.85,7.59,
Fc1cc(Nc2ccnc3ccnn23)c2ncccc2c1,8.41,8.41,
C[C@@H]1CC[C@H]2[C@@H](C)C(=O)O[C@@H]3O[C@@]4(C)CC[C@@H]1[C@]32OO4 [ARTEMISININ],8.15,,
O=C1C(O)=C([C@H]2CC[C@H](c3ccc(Cl)cc3)CC2)C(=O)c2ccccc21 [ATOVAQUONE],,8.64,
c1cnc2c(Nc3ccnc4ncnn34)cccc2c1,5.85,6.08,
c1cc(Nc2ccnc3ccnn23)c2ccncc2c1,5.92,5.80,

# — ChEMBL document CHEMBL3400088, “Synthesis and in vitro evaluation of novel 8-aminoquinoline-pyrazolopyrimidine hybrids as potent antimalarial agents” (Bioorg Med Chem Lett, 2015)
